Converted amounts (≈) assume the structure as drawn. The source made the active and inactive calls. The calls are words filed in the database; no cut-off is given here. Bridge positions count the residues as written; N and C are the ends. Square brackets hold non-standard residues; d marks the D form. Peptide text beside a SMILES is read from it. Dab = NCC[C@H](N)C(=O)O
Key:
Escherichia coli [1] = assay: Antimicrobial activity against Escherichia coli ATCC 25922; type: functional
Escherichia coli [2] = assay: Antimicrobial activity against Escherichia coli ATCC 25922 in presence of 2 ug/ml NAB741; type: functional
Escherichia coli [3] = assay: Antimicrobial activity against Escherichia coli ATCC 25922 in presence of 4 ug/ml NAB741; type: functional
Escherichia coli [4] = assay: Antimicrobial activity against Escherichia coli ATCC 25922 in presence of 8 ug/ml NAB741; type: functional
Escherichia coli [5] = assay: Antimicrobial activity against Escherichia coli ATCC 25922 in presence of […] ug/ml NAB741; type: functional
Escherichia coli [6] = assay: Antimicrobial activity against Escherichia coli ATCC 25922 in presence of 32 ug/ml NAB741; type: functional
Escherichia coli [7] = assay: Antimicrobial activity against Escherichia coli ATCC 25922 by Etest method; type: functional
Escherichia coli [8] = assay: Antimicrobial activity against Escherichia coli ATCC 25922 by Etest method in presence of 2 ug/ml NAB741; type: functional
Escherichia coli [9] = assay: Antimicrobial activity against Escherichia coli ATCC 25922 by Etest method in presence of 4 ug/ml NAB741; type: functional
Escherichia coli [10] = assay: Antimicrobial activity against in Escherichia coli ATCC 25922 in presence of NAB741; type: functional
Escherichia coli [11] = assay: Antimicrobial activity against Escherichia coli IH3080 by Etest method; type: functional
Escherichia coli [12] = assay: Antimicrobial activity against Escherichia coli IH3080 by Etest method in presence of 2 ug/ml NAB741; type: functional
Escherichia coli [13] = assay: Antimicrobial activity against Escherichia coli IH3080 by Etest method in presence of 4 ug/ml NAB741; type: functional
Escherichia coli [14] = assay: Antimicrobial activity against in Escherichia coli IH3080 in presence of NAB741; type: functional
Klebsiella pneumoniae [15] = assay: Antimicrobial activity against Klebsiella pneumoniae ATCC 13883 by Etest method; type: functional
Klebsiella pneumoniae [16] = assay: Antimicrobial activity against Klebsiella pneumoniae ATCC 13883 by Etest method in presence of 2 ug/ml NAB741; type: functional
Klebsiella pneumoniae [17] = assay: Antimicrobial activity against Klebsiella pneumoniae ATCC 13883 by Etest method in presence of 4 ug/ml NAB741; type: functional
Klebsiella pneumoniae [18] = assay: Antimicrobial activity against in Klebsiella pneumoniae ATCC 13883 in presence of NAB741; type: functional
Enterobacter cloacae [19] = assay: Antimicrobial activity against Enterobacter cloacae ATCC 23355 by Etest method; type: functional
Enterobacter cloacae [20] = assay: Antimicrobial activity against Enterobacter cloacae ATCC 23355 by Etest method in presence of 2 ug/ml NAB741; type: functional
Enterobacter cloacae [21] = assay: Antimicrobial activity against Enterobacter cloacae ATCC 23355 by Etest method in presence of 4 ug/ml NAB741; type: functional
Enterobacter cloacae [22] = assay: Antimicrobial activity against in Enterobacter cloacae ATCC 23355 in presence of NAB741; type: functional
Acinetobacter baumannii [23] = assay: Antimicrobial activity against Acinetobacter baumannii ATCC 19606 by Etest method; type: functional
Acinetobacter baumannii [24] = assay: Antimicrobial activity against Acinetobacter baumannii ATCC 19606 by Etest method in presence of 2 ug/ml NAB741; type: functional
Acinetobacter baumannii [25] = assay: Antimicrobial activity against Acinetobacter baumannii ATCC 19606 by Etest method in presence of 4 ug/ml NAB741; type: functional
Acinetobacter baumannii [26] = assay: Antimicrobial activity against in Acinetobacter baumannii ATCC 19606 in presence of NAB741; type: functional
Escherichia coli [27] = assay: Ratio of MIC for Escherichia coli ATCC 25922 to MIC for Escherichia coli ATCC 25922 in presence of 4 ug/ml of NAB741; type: functional
Escherichia coli [28] = assay: Ratio of MIC for Escherichia coli IH3080 to MIC for Escherichia coli IH3080 in presence of 4 ug/ml of NAB741; type: functional
Klebsiella pneumoniae [29] = assay: Ratio of MIC for Klebsiella pneumoniae ATCC 13883 to MIC for Klebsiella pneumoniae ATCC 13883 in presence of 4 ug/ml of NAB741; type: functional
Enterobacter cloacae [30] = assay: Ratio of MIC for Enterobacter cloacae ATCC 23355 to MIC for Enterobacter cloacae ATCC 23355 in presence of 4 ug/ml of NAB741; type: functional
Acinetobacter baumannii [31] = assay: Ratio of MIC for Acinetobacter baumannii ATCC 19606 to MIC for Acinetobacter baumannii ATCC 19606 in presence of 4 ug/ml of NAB741; type: functional
V79 = assay: Cytotoxicity against Chinese hamster V79 cells at 0.25 ug/ml to 128 ug/ml after 24 hrs; type: cell-based, Cricetulus griseus; settings: v79, 24 h
[32] = Plasma concentration in Sprague-Dawley rat at 1 mg/kg, iv administered after 10 minutes; type: ADME, organism-based; design: dose 1 mg/kg, route intravenous
[33] = (§1) Half-life in Sprague-Dawley rat at 1 mg/kg, iv; type: ADME, organism-based; design: dose 1 mg/kg, route intravenous; settings: Sprague-Dawley, in vivo
[34] = (§2) Volume of distribution in Sprague-Dawley rat at 1 mg/kg, iv; type: ADME, organism-based; design: dose 1 mg/kg, route intravenous; settings: Sprague-Dawley, in vivo
[35] = Total body clearance in Sprague-Dawley rat at 1 mg/kg, iv; type: ADME, organism-based; design: dose 1 mg/kg, route intravenous; settings: in vivo
[36] = (§3) Drug level in Sprague-Dawley rat urine at 1 mg/kg, iv; type: ADME, organism-based; design: dose 1 mg/kg, route intravenous; settings: Sprague-Dawley, urine, read-out: Drug uptake
[37] = Renal clearance in Sprague-Dawley rat at 1 mg/kg, iv; type: ADME, organism-based, Kidney; design: dose 1 mg/kg, route intravenous; settings: in vivo, read-out: CL_renal
Escherichia coli [38] = assay: Antimicrobial activity against Escherichia coli IH3080 assessed as zone of inhibition at 10 ug after 18 hrs by disk diffusion method; type: functional
Escherichia coli [39] = assay: Antimicrobial activity against Escherichia coli IH3080 assessed as zone of inhibition at 10 ug after 18 hrs by disk diffusion method in presence of 1 ug/ml rifampin; type: functional
Acinetobacter baumannii [40] = assay: Antimicrobial activity against Acinetobacter baumannii ATCC 19606 assessed as zone of inhibition at 10 ug after 18 hrs by disk diffusion method; type: functional
Acinetobacter baumannii [41] = assay: Antimicrobial activity against Acinetobacter baumannii ATCC 19606 assessed as zone of inhibition at 10 ug after 18 hrs by disk diffusion method in presence of 1 ug/ml rifampin; type: functional
Pseudomonas aeruginosa [42] = assay: Antimicrobial activity against Pseudomonas aeruginosa ATCC 27853 assessed as zone of inhibition at 10 ug after 18 hrs by disk diffusion method; type: functional
Pseudomonas aeruginosa [43] = assay: Antimicrobial activity against Pseudomonas aeruginosa ATCC 27853 assessed as zone of inhibition at 10 ug after 18 hrs by disk diffusion method in presence of 1 ug/ml rifampin; type: functional
Escherichia coli [44] = assay: Antimicrobial activity against Escherichia coli F19; type: functional
Enterobacter cloacae [45] = assay: Antimicrobial activity against Enterobacter cloacae ATCC 23355 at 16 ug/ml; type: functional, organism-based
Rattus norvegicus [46] = assay: as §1; type: ADME, organism-based; design: dose 1 mg/kg, route intravenous; settings: in vivo
Rattus norvegicus [47] = assay: as §2; type: ADME, organism-based; design: dose 1 mg/kg, route intravenous; settings: in vivo
Rattus norvegicus [48] = assay: as §3; type: ADME, organism-based; design: dose 1 mg/kg, route intravenous; settings: in vivo

Compound	MIC (Escherichia coli [1]) [µg/mL]	MIC (Escherichia coli [2]) [µg/mL]	MIC (Escherichia coli [3]) [µg/mL]	MIC (Escherichia coli [4]) [µg/mL]	MIC (Escherichia coli [5]) [µg/mL]	MIC (Escherichia coli [6]) [µg/mL]	MIC (Escherichia coli [7]) [µg/mL]	MIC (Escherichia coli [8]) [µg/mL]	MIC (Escherichia coli [9]) [µg/mL]	fractional inhibitory concentration index (FICI) (Escherichia coli [10])	MIC (Escherichia coli [11]) [µg/mL]	MIC (Escherichia coli [12]) [µg/mL]	MIC (Escherichia coli [13]) [µg/mL]	fractional inhibitory concentration index (FICI) (Escherichia coli [14])	MIC (Klebsiella pneumoniae [15]) [µg/mL]	MIC (Klebsiella pneumoniae [16]) [µg/mL]	MIC (Klebsiella pneumoniae [17]) [µg/mL]	MIC (Enterobacter cloacae [19]) [µg/mL]	MIC (Enterobacter cloacae [20]) [µg/mL]	MIC (Enterobacter cloacae [21]) [µg/mL]	also measured
CC[C@H]1OC(=O)[C@H](C)[C@@H](O[C@H]2C[C@@](C)(OC)[C@@H](O)[C@H](C)O2)[C@H](C)[C@@H](O[C@@H]2O[C@H](C)C[C@H](N(C)C)[C@H]2O)[C@](C)(OC)C[C@@H](C)C(=O)[C@H](C)[C@@H](O)[C@]1(C)O [CLARITHROMYCIN]	≥ 64	32	1	0.5	0.25	0.063	16 (≈ 21.4 µM)	0.5	0.094	0.094	12 (≈ 16 µM)	1	0.125	0.126	12 (≈ 16 µM)	4	1	48 (≈ 64.2 µM)	16	0.5	fractional inhibitory concentration index (FICI) (Klebsiella pneumoniae [18]): 0.167; fractional inhibitory concentration index (FICI) (Enterobacter cloacae [22]): 0.135; MIC (Acinetobacter baumannii [23]): 8 µg/mL (≈ 10.7 µM); MIC (Acinetobacter baumannii [24]): 0.75 µg/mL; MIC (Acinetobacter baumannii [25]): 0.5 µg/mL; fractional inhibitory concentration index (FICI) (Acinetobacter baumannii [26]): 0.156; Ratio (Escherichia coli [27]): 84; Ratio (Escherichia coli [28]): 64; Ratio (Klebsiella pneumoniae [29]): 6; Ratio (Enterobacter cloacae [30]): 64; Ratio (Acinetobacter baumannii [31]): 12
CO[C@H]1/C=C/O[C@@]2(C)Oc3c(C)c(O)c4c(O)c(c(/C=N/N5CCN(C)CC5)c(O)c4c3C2=O)NC(=O)/C(C)=C\C=C\[C@H](C)[C@H](O)[C@@H](C)[C@@H](O)[C@@H](C)[C@H](OC(C)=O)[C@@H]1C [RIFAMPIN]	8 (≈ 9.72 µM)	4	1	0.25	0.063	0.031	4 (≈ 4.86 µM)	0.64	0.016	0.126	4 (≈ 4.86 µM)	0.19	0.047	0.111	12 (≈ 14.6 µM)	1	0.5	6 (≈ 7.29 µM)	1.5	0.016	fractional inhibitory concentration index (FICI) (Enterobacter cloacae [22]): 0.126; MIC (Acinetobacter baumannii [23]): 1.5 µg/mL (≈ 1.82 µM); MIC (Acinetobacter baumannii [24]): 0.19 µg/mL; MIC (Acinetobacter baumannii [25]): 0.094 µg/mL; fractional inhibitory concentration index (FICI) (Acinetobacter baumannii [26]): 0.131
CC(=O)N[C@H](C(=O)N[C@H](CO)C(=O)N[C@H]1CCNC(=O)[C@H]([C@@H](C)O)NC(=O)[C@H](CCN)NC(=O)[C@H](CCN)NC(=O)[C@H](CC(C)C)NC(=O)[C@@H](Cc2ccccc2)NC(=O)[C@H](CCN)NC1=O)[C@@H](C)O [SPR-741] (Ac-T[dS][Dab][Dab][dF]L[Dab][Dab]T; lactam 3-C)	–	–	–	–	–	–	–	–	–	–	–	–	–	–	–	–	–	–	–	–	Activity (V79): Non-toxic; concentration at 10 min [32]: 3130 ng/mL; half-life [33]: 32.7 min; Vd [34]: 0.243 L/kg; clearance [35]: 7.39 mL/min/kg; dose excreted [36]: 50.9%; CL renal [37]: 3.78 mL/min/kg; inhibition zone (IZ) (Escherichia coli [38]): 12 mm2; inhibition zone (IZ) (Escherichia coli [39]): 230 mm2; inhibition zone (IZ) (Acinetobacter baumannii [40]): 9 mm2; inhibition zone (IZ) (Acinetobacter baumannii [41]): 223 mm2; inhibition zone (IZ) (Pseudomonas aeruginosa [42]): 4 mm2; inhibition zone (IZ) (Pseudomonas aeruginosa [43]): 20 mm2; MIC (Escherichia coli [44]): 16 µg/mL (≈ 16.1 µM); Activity (Enterobacter cloacae [45]): Active
COLISTIN	–	–	–	–	–	–	–	–	–	–	–	–	–	–	–	–	–	–	–	–	t1/2 (Rattus norvegicus [46]): 74.6 min; Vd (Rattus norvegicus [47]): 0.496 L/kg; Drug uptake (Rattus norvegicus [48]): 0.18%
